# *1 amine or outer side, *2 acyl side, *3 side chain or, on linkers, in order; H or OH if unused. Where a SMILES comes first, the peptide text is derived from it. Bridges are numbered along the chain shown (N, C = ends). [ ]: non-standard residue; d: D form. The star is where a group is joined. Orn(4R-OH,5R-OCH2CH2NMe3+) = C[N+](C)(C)CCO[C@@H](N[*:3])[C@H](O)C[C@H](N[*:1])C(=O)[*:2]; pTerphenylCO(4''-OnC5H11) = CCCCCOc1ccc(-c2ccc(-c3ccc(C(=O)*)cc3)cc2)cc1; hTyr(3S-OH,4S-OH) = N[C@H](C(=O)O)[C@H](O)[C@@H](O)c1ccc(O)cc1; Pro(3S-OH,4S-Me) = C[C@H]1CN[C@H](C(=O)O)[C@H]1O; Hyp = O=C(O)[C@@H]1C[C@@H](O)CN1
# Key:
# [1] = Population pharmacokinetic model of rezafungin (three-compartment, NONMEM) from plasma concentrations of Phase 1, 2 and 3 studies; assay type: in vivo, human
# Procedure: Data from single- and multiple-dose studies in healthy volunteers and patients, with doses ranging from 50 to 1,400 mg, were included in the PK analysis. All doses of rezafungin were administered via IV infusion. The PK data set consisted of a total of 2,512 rezafungin concentration records from 277 subjects, of which five records were identified as below the lower limit of quantitation postdose and five other records were identified as above 50 µg/mL, which was the upper limit of quantitation. Those records together represent less than 0.5% of the observed concentrations and were excluded from the analysis.
# Starting from the previously developed four-compartment PK model ([13]), structurally simpler two- and three-compartment models with IIV in various parameters were developed and compared. During the initial modeling exercise, eight additional records were identified as outliers using conditional weighted residuals greater than 5 or smaller than −5 as a criterion and were excluded from model development. […] The two other compartments were considered peripheral distribution compartments (V2 and V3). When IIVs in V2 and V3 were included in the model, it was recognized that the individual IIVs on V2 and V3 were highly correlated, and, in addition, the typical estimates of V2 and V3 were very similar. Therefore, a model with a shared IIV term and with a single shared parameter for V2 and V3 [peripheral volume (V23)] was tested. […] The estimation of a four-compartment model achieved a moderate improvement in the value of the objective function (VOF) (a decrease of 49 points). However, there was no discernible improvement in the goodness-of-fit model diagnostics, and the residual error was nearly identical. Therefore, the three-compartment structural model was considered to adequately describe the PK of rezafungin without overparameterization. The inclusion of IIV terms was tested on various PK parameters, including clearance (CL), central volume of distribution (V1), V23, intercompartmental clearance 1 (Q2), and intercompartmental clearance 2 (Q3). Interindividual variability terms on CL, V1, and V23 were sufficient to achieve good individual predictions. For the residual variability (RV), the constant coefficient of variation (CCV) and combined additive and proportional error models were tested.
# The final PK model of rezafungin is a three-compartment model with first-order elimination, characterized by the parameters CL, V1, V23, Q2, and Q3. The variability model included IIV in V1, V23, and CL, their covariances, and a proportional RV model (Table 2). All fixed and random effect parameters, including those of the covariance terms, were estimated with reasonable precision (<39%RSE). The magnitudes of the IIV parameters were moderate for all parameters: 30.5 coefficient of variation expressed as a percent (%CV) for CL, 37.6%CV for V1, and 29.3%CV for V23. Eta shrinkage was low for all parameters (<11%), and the residual error was also low (9.74%CV).
# Data were obtained from five Phase 1 studies (CD101.IV.1.01, CD101.IV.1.02, CD101.IV.1.06, CD101.IV.1.07, and CD101.IV.1.15), a Phase 2 study (CD101.IV.2.03; STRIVE), and a Phase 3 study (CD101.IV.3.05; ReSTORE) (Table S1). All study participants met the inclusion and exclusion criteria for the study in which they were enrolled. All clinical studies were conducted in compliance with International Council for Harmonisation guidelines on Good Clinical Practice.
# Dosing regimens for rezafungin are described in Table S1. Data from both single- and multiple-dose studies, with doses ranging from 50 to 1,400 mg, were included in this analysis. All doses of rezafungin were administered via IV infusion.
# Dense PK samples were collected in the Phase 1 studies, and a mixture of dense and sparse PK samples were collected in the Phase 2 and Phase 3 studies. […]
# [2] = Simulated exposure measures after a single 400 mg dose from individual Bayesian PK estimates, with forest plots of covariate effects; assay type: in vivo, human; conditions: for Half-life: from simulated concentrations during week 2 after the last dose; for Clearance: individual model-based estimates (CL); for AUC0–168h / Cmax / Cmin, 168h: single 400 mg IV dose, simulated; for Total volume of distribution at steady state: sum of individual model-based central and peripheral volumes
# Procedure: To illustrate the relative differences in the impact of the covariates included in the final model on the exposure of rezafungin, forest plots were constructed using simulated exposure for the subjects in the analysis data set, following a single dose of 400 mg. […] Though statistically significant and included in the final model, the GMR rezafungin exposure and 90% CI of each covariate effect were not far outside of the default no effect bounds of 0.8 and 1.25.
# Age was not determined to be a significant covariate of rezafungin exposure. Sixty-three patients were aged 65 years or older, with the oldest patient being […]. Thirty-eight patients were aged 65 to <75, and 25 patients were aged 75 to 89 years old. The GMR (90% CI) of AUC0–168h of these two age groups were 0.95 (0.85, 1.05) and 1.20 (1.06, 1.36), respectively, compared to patients 24 to <65 years old (n = 104). The change in exposure in patients 65 years or older is not deemed clinically meaningful.
# The final PK model of rezafungin, the individual empirical Bayesian PK parameter estimates, and the individual dosing histories were used to simulate dense PK profiles for each subject using the R package mrgsolve ([33]).
# [3] = final population PK model, population mean
# [4] = final population PK model, population mean, covariate effect
# [5] = healthy subjects, n = 94, geometric mean (geometric %CV)
# [6] = healthy subjects, n = 94, mean (SD), SD
# [7] = hepatic impairment, uninfected, n = 16, geometric mean (geometric %CV)
# [8] = hepatic impairment, uninfected, n = 16, mean (SD), SD
# [9] = patients, n = 167, geometric mean (geometric %CV)
# [10] = patients, n = 167, mean (SD), SD
structure (smiles),measurement,setting,value
"CCCCCOc1ccc(-c2ccc(-c3ccc(C(=O)N[C@H]4C[C@@H](O)[C@@H](OCC[N+](C)(C)C)NC(=O)[C@@H]5[C@@H](O)[C@@H](C)CN5C(=O)[C@H]([C@@H](C)O)NC(=O)[C@H]([C@H](O)[C@@H](O)c5ccc(O)cc5)NC(=O)[C@@H]5C[C@@H](O)CN5C(=O)[C@H]([C@@H](C)O)NC4=O)cc3)cc2)cc1 [rezafungin] ({pTerphenylCO(4''-OnC5H11)}-[Orn(4R-OH,5R-OCH2CH2NMe3+)]T[Hyp][hTyr(3S-OH,4S-OH)]T[Pro(3S-OH,4S-Me)]; lactam 1-C)",CL,"[1]; BSA 1.3 m^2, based on the final model estimates",0.235 L/h
same,CL,"[1]; BSA 2.6 m^2, based on the final model estimates",0.433 L/h
same,lower CL in healthy subjects than infected subjects or those with hepatic impairment,[1]; final model estimates,27.6%
same,"Q2, Distribution clearance 1",[1]; [3],0.236 L/h
same,"Q3, Distribution clearance 2",[1]; [3],12.4 L/h
same,"V23, Peripheral volume 1 and 2","[1]; final population PK model, population mean, BSA 1.9 m^2, ALB 3.2 g/dL",19.1 L
same,"CL, Central clearance","[1]; final population PK model, population mean, IV infusion, 277 subjects, typical value for disease state, BSA 1.9 m^2",0.328 L/h
same,Exponent of (BSA/1.9) for V1,[1]; [4],1.56
same,Exponent of (BSA/1.9) for V23,[1]; [4],1.17
same,"V1, Central volume","[1]; final population PK model, population mean, typical value for disease state, BSA 1.9 m^2",17.7 L
same,Half-life,[2]; [5],143.368 (9.737) h
same,Half-life,[2]; [6],144.039 (14.027) h
same,Half-life,[2]; [7],132.827 (9.457) h
same,Half-life,[2]; [8],133.372 (12.249) h
same,Half-life,[2]; [9],149.458 (18.095) h
same,Half-life,[2]; [10],151.960 (29.086) h
same,Clearance,[2]; [5],0.229 (20.266) L/h
same,Clearance,[2]; [6],0.234 (0.048) L/h
same,Clearance,[2]; [7],0.336 (21.829) L/h
same,Clearance,[2]; [8],0.343 (0.077) L/h
same,Clearance,[2]; [9],0.328 (38.396) L/h
same,Clearance,[2]; [10],0.350 (0.130) L/h
same,AUC0–168h,[2]; [5],"1,070.513 (20.149) μg × h/mL"
same,Cmax,[2]; [5],21.725 (22.466) μg/mL
same,"Cmin, 168h",[2]; [5],3.247 (22.858) μg/mL
same,AUC0–168h,[2]; [6],"1,091.512 (215.164) μg × h/mL"
same,Cmax,[2]; [6],22.244 (4.789) μg/mL
same,"Cmin, 168h",[2]; [6],3.329 (0.741) μg/mL
same,AUC0–168h,[2]; [7],778.250 (19.012) μg × h/mL
same,Cmax,[2]; [7],17.061 (16.797) μg/mL
same,"Cmin, 168h",[2]; [7],2.113 (25.916) μg/mL
same,AUC0–168h,[2]; [8],791.452 (152.248) μg × h/mL
same,Cmax,[2]; [8],17.291 (3.017) μg/mL
same,"Cmin, 168h",[2]; [8],2.176 (0.533) μg/mL
same,AUC0–168h,[2]; [9],752.507 (35.100) μg × h/mL
same,Cmax,[2]; [9],17.715 (35.418) μg/mL
same,"Cmin, 168h",[2]; [9],2.097 (43.351) μg/mL
same,AUC0–168h,[2]; [10],798.607 (295.120) μg × h/mL
same,Cmax,[2]; [10],18.761 (6.448) μg/mL
same,"Cmin, 168h",[2]; [10],2.292 (1.072) μg/mL
same,"Fold change in AUC0-168h relative to reference, GMR (90% CI)","[2]; single 400 mg dose, Phase 2/3 patients, BMI obese (≥30 kg/m^2), n = 36, vs optimum BMI","0.77 (0.69, 0.86)"
same,"Fold change in AUC0-168h relative to reference, GMR (90% CI)","[2]; single 400 mg dose, Phase 2/3 patients, BMI overweight (25 to <30 kg/m^2), n = 40, vs optimum BMI","0.84 (0.75, 0.94)"
same,"Fold change in AUC0-168h relative to reference, GMR (90% CI)","[2]; single 400 mg dose, Phase 2/3 patients, BMI underweight (<18.5 kg/m^2), n = 17, vs optimum BMI","1.03 (0.88, 1.20)"
same,"Fold change in AUC0-168h relative to reference, GMR (90% CI)","[2]; single 400 mg dose, Phase 2/3 patients, age (y) [65,75), n = 38, vs 24 to <65 years","0.95 (0.85, 1.05)"
same,"Fold change in AUC0-168h relative to reference, GMR (90% CI)","[2]; single 400 mg dose, Phase 2/3 patients, age (y) [75,89], n = 25, vs 24 to <65 years","1.20 (1.06, 1.36)"
same,higher AUC0–168h in female subjects,"[2]; single 400 mg dose, Phase 2/3 patients, female vs male",21%
same,"Fold change in AUC0-168h relative to reference, GMR (90% CI)","[2]; single 400 mg dose, Phase 2/3 patients, kidney failure (CrCL <15 mL/min) vs normal renal function","1.16 (0.96, 1.39)"
same,"Fold change in AUC0-168h relative to reference, GMR (90% CI)","[2]; single 400 mg dose, Phase 2/3 patients, mild renal impairment (CrCL 60 to 89 mL/min) vs normal renal function","0.95 (0.85, 1.06)"
same,"Fold change in AUC0-168h relative to reference, GMR (90% CI)","[2]; single 400 mg dose, Phase 2/3 patients, moderate renal impairment (CrCL 30 to 59 mL/min) vs normal renal function","1.23 (1.11, 1.36)"
same,"Fold change in AUC0-168h relative to reference, GMR (90% CI)","[2]; single 400 mg dose, Phase 2/3 patients, severe renal impairment (CrCL 15 to 29 mL/min) vs normal renal function","1.01 (0.88, 1.16)"
same,Total volume of distribution at steady state,[2]; [5],42.312 (22.744) L
same,Total volume of distribution at steady state,[2]; [6],43.410 (10.265) L
same,Total volume of distribution at steady state,[2]; [7],56.279 (19.744) L
same,Total volume of distribution at steady state,[2]; [8],57.264 (10.702) L
same,Total volume of distribution at steady state,[2]; [9],62.434 (40.964) L
same,Total volume of distribution at steady state,[2]; [10],67.451 (27.744) L
